Experimental data reported in US20150344540A1, “NOVEL GLP-1 RECEPTOR AGONISTS WITH CHOLESTEROL EFFLUX ACTIVITY” (NOVO NORDISK A/S, priority 2012, published 2015).
Where a SMILES comes first, the peptide text is derived from it. [ ]: non-standard residue; d: D form. Aib = CC(C)(N)C(=O)O

System: Mouse monocyte/macrophage cell line, RAW 264.7
Assay: Cholesterol efflux assay (3H-cholesterol, macrophage cell line)
Type: cell-based
Settings: RAW 264.7, 4 hrs incubation, 0.1% human serum albumin, ABCA1-mediated efflux

Row | Structure (SMILES) | 4 h Cholesterol Efflux Emax [%]
1 | CC[C@H](C)[C@H](NC(=O)[C@H](Cc1ccccc1)NC(=O)[C@H](CCC(=O)O)NC(=O)[C@H](CCCCN)NC(=O)[C@@H](NC(=O)[C@H](C)NC(=O)[C@H](CCC(=O)O)NC(=O)CNC(=O)[C@H](CCC(=O)O)NC(=O)[C@H](CC(C)C)NC(=O)[C@H](Cc1ccc(O)cc1)NC(=O)[C@H](CO)NC(=O)[C@H](CO)NC(=O)[C@@H](NC(=O)[C@H](CC(=O)O)NC(=O)[C@H](CO)NC(=O)[C@@H](NC(=O)[C@H](Cc1ccccc1)NC(=O)[C@@H](NC(=O)CNC(=O)[C@H](CCC(=O)O)NC(=O)C(C)(C)NC(=O)[C@@H](N)Cc1c[nH]cn1)[C@@H](C)O)[C@@H](C)O)C(C)C)C(C)C)C(=O)N[C@@H](CCCCN)C(=O)N[C@@H](Cc1c[nH]c2ccccc12)C(=O)N[C@@H](CC(C)C)C(=O)N[C@H](C(=O)N[C@@H](CCC(=O)O)C(=O)N[C@@H](CCCCN)C(=O)N[C@@H](CC(C)C)C(=O)N[C@@H](CCCCN)C(=O)N[C@@H](CCC(=O)O)C(=O)N[C@@H](Cc1ccccc1)C(=O)N[C@@H](CC(C)C)C(N)=O)C(C)C [Compound 85, [Aib8,Glu23,Val25,Lys30,Glu34,Lys35,Leu36,Lys37]-GLP-1-(7-37)-peptidyl-Glu-Phe-Leu amide] (H-H[Aib]EGTFTSDVSSYLEGEAVKEFIKWLVEKLKEFL-NH2) | 93
2 | CC[C@H](C)[C@H](NC(=O)[C@H](Cc1ccccc1)NC(=O)[C@H](CCC(=O)O)NC(=O)[C@H](CCCCN)NC(=O)[C@@H](NC(=O)[C@H](C)NC(=O)[C@H](CCC(=O)O)NC(=O)CNC(=O)[C@H](CCC(=O)O)NC(=O)[C@H](CC(C)C)NC(=O)[C@H](Cc1ccc(O)cc1)NC(=O)[C@H](CO)NC(=O)[C@H](CO)NC(=O)[C@@H](NC(=O)[C@H](CC(=O)O)NC(=O)[C@H](CO)NC(=O)[C@@H](NC(=O)[C@H](Cc1ccccc1)NC(=O)[C@@H](NC(=O)CNC(=O)[C@H](CCC(=O)O)NC(=O)C(C)(C)NC(=O)[C@@H](N)Cc1c[nH]cn1)[C@@H](C)O)[C@@H](C)O)C(C)C)C(C)C)C(=O)N[C@@H](C)C(=O)N[C@@H](Cc1c[nH]c2ccccc12)C(=O)N[C@@H](CC(C)C)C(=O)N[C@H](C(=O)N[C@@H](CCC(=O)O)C(=O)N[C@@H](CCCCN)C(=O)NC(C)(C)C(=O)N[C@@H](CC(C)C)C(=O)N[C@@H](CO)C(=O)N[C@@H](Cc1ccccc1)C(=O)N[C@@H](CC(C)C)C(N)=O)C(C)C [Compound 88] (H-H[Aib]EGTFTSDVSSYLEGEAVKEFIAWLVEK[Aib]LSFL-NH2) | 69
3 | CC[C@H](C)[C@H](NC(=O)[C@H](Cc1ccccc1)NC(=O)[C@H](CCC(=O)O)NC(=O)[C@H](CCCCN)NC(=O)[C@@H](NC(=O)[C@H](C)NC(=O)[C@H](CCC(=O)O)NC(=O)CNC(=O)[C@H](CCC(=O)O)NC(=O)[C@H](CC(C)C)NC(=O)[C@H](Cc1ccc(O)cc1)NC(=O)[C@H](CO)NC(=O)[C@H](CO)NC(=O)[C@@H](NC(=O)[C@H](CC(=O)O)NC(=O)[C@H](CO)NC(=O)[C@@H](NC(=O)[C@H](Cc1ccccc1)NC(=O)[C@@H](NC(=O)CNC(=O)[C@H](CCC(=O)O)NC(=O)C(C)(C)NC(=O)[C@@H](N)Cc1c[nH]cn1)[C@@H](C)O)[C@@H](C)O)C(C)C)C(C)C)C(=O)N[C@@H](C)C(=O)N[C@@H](Cc1c[nH]c2ccccc12)C(=O)N[C@@H](CC(C)C)C(=O)N[C@@H](CC(C)C)C(=O)N[C@@H](CCC(=O)O)C(=O)N[C@@H](CCCCN)C(=O)NC(C)(C)C(=O)N[C@@H](CCCCN)C(=O)N[C@@H](CCC(=O)O)C(=O)N[C@@H](Cc1c[nH]c2ccccc12)C(=O)N[C@@H](CC(C)C)C(N)=O [Compound 89, [Aib8,Glu23,Val25,Leu33,Glu34,Lys35,Aib36,Lys37]-GLP-1-(7-37)-peptidyl-Glu-Trp-Leu amide] (H-H[Aib]EGTFTSDVSSYLEGEAVKEFIAWLLEK[Aib]KEWL-NH2) | 102
4 | CC[C@H](C)[C@H](NC(=O)[C@H](Cc1ccccc1)NC(=O)[C@H](CCC(=O)O)NC(=O)[C@H](CCCCN)NC(=O)[C@@H](NC(=O)[C@H](C)NC(=O)[C@H](CCCCN)NC(=O)CNC(=O)[C@H](CCC(=O)O)NC(=O)[C@H](CC(C)C)NC(=O)[C@H](Cc1ccc(O)cc1)NC(=O)[C@H](CO)NC(=O)[C@H](CO)NC(=O)[C@@H](NC(=O)[C@H](CC(=O)O)NC(=O)[C@H](CO)NC(=O)[C@@H](NC(=O)[C@H](Cc1ccccc1)NC(=O)[C@@H](NC(=O)CNC(=O)[C@H](CCC(=O)O)NC(=O)C(C)(C)NC(=O)[C@@H](N)Cc1c[nH]cn1)[C@@H](C)O)[C@@H](C)O)C(C)C)C(C)C)C(=O)N[C@@H](C)C(=O)N[C@@H](Cc1c[nH]c2ccccc12)C(=O)N[C@@H](CC(C)C)C(=O)N[C@H](C(=O)N[C@@H](CCC(=O)O)C(=O)N[C@@H](CCCCN)C(=O)NC(C)(C)C(=O)N[C@@H](CCCCN)C(=O)N[C@@H](CCC(=O)O)C(=O)N[C@@H](Cc1ccccc1)C(=O)N[C@@H](CC(C)C)C(N)=O)C(C)C [Compound 90, [Aib8,Lys23,Val25,Glu34,Lys35,Aib36,Lys37]-GLP-1-(7-37)-peptidyl-Glu-Phe-Leu amide] (H-H[Aib]EGTFTSDVSSYLEGKAVKEFIAWLVEK[Aib]KEFL-NH2; N-terminus assumed) | 110
5 | CC[C@H](C)[C@H](NC(=O)[C@H](Cc1ccccc1)NC(=O)[C@H](CCC(=O)O)NC(=O)[C@H](CCCCN)NC(=O)[C@@H](NC(=O)[C@H](C)NC(=O)[C@H](CCC(=O)O)NC(=O)CNC(=O)[C@H](CCC(=O)O)NC(=O)[C@H](CC(C)C)NC(=O)[C@H](Cc1ccc(O)cc1)NC(=O)[C@H](CO)NC(=O)[C@H](CO)NC(=O)[C@@H](NC(=O)[C@H](CC(=O)O)NC(=O)[C@H](CO)NC(=O)[C@@H](NC(=O)[C@H](Cc1ccccc1)NC(=O)[C@@H](NC(=O)CNC(=O)[C@H](CCC(=O)O)NC(=O)C(C)(C)NC(=O)[C@@H](N)Cc1c[nH]cn1)[C@@H](C)O)[C@@H](C)O)C(C)C)C(C)C)C(=O)N[C@@H](C)C(=O)N[C@@H](Cc1c[nH]c2ccccc12)C(=O)N[C@@H](CC(C)C)C(=O)N[C@H](C(=O)N[C@@H](CCC(=O)O)C(=O)N[C@@H](CCCCN)C(=O)N[C@@H](Cc1ccccc1)C(=O)N[C@@H](CCCCN)C(=O)N[C@@H](CCC(=O)O)C(=O)N[C@@H](Cc1ccccc1)C(=O)N[C@@H](Cc1ccccc1)C(N)=O)C(C)C [Compound 93, [Aib8,Glu23,Val25,Glu34,Lys35,Phe36,Lys37]-GLP-1-(7-37)-peptidyl-Glu-Phe-Phe amide] (H-H[Aib]EGTFTSDVSSYLEGEAVKEFIAWLVEKFKEFF-NH2) | 113
